This passage reports MIC results from patent publication US20080249033A1, “Carbamate Linked Macrolides Useful For The Treatment Of Microbial Infections” (priority 2004, published 2008).

What all share (format): cell-based
Experiment [1] relates to S. aureus Smith ATCC 0329. Description: MIC, microtiter broth serial dilution test. The note with it: Staphylococcus aureus, ATCC0329.
In another experiment the test system is S. pneumoniae 0541. The experiment can be described thus: MIC, microtiter broth serial dilution test. The note with it: Streptococcus pneumoniae.
A further experiment relates to S. pyogenes 0542. Description: MIC, microtiter broth serial dilution test. The conditions noted are these: Streptococcus pyogenes.
A further experiment deals with E. faecalis ATCC 0004. Description: MIC, microtiter broth serial dilution test. The conditions noted are these: Enterococcus faecalis, ATCC0004.
The subject of the next experiment is H. influenzae ATCC 0529. The experiment can be described thus: MIC, microtiter broth serial dilution test. The note with it: Haemophilus influenzae, ATCC0529.
The subject of experiment [2] is erythromycin resistant strains of Streptococcus pneumoniae. Description: MIC, erythromycin resistant strains.
In experiment [3] the test system is erythromycin resistant strains of Streptococcus pyogenes. The experiment can be described thus: MIC, erythromycin resistant strains.
For another experiment, the system named is M. catarrhalis ATCC 0324. The experiment can be described thus: MIC, microtiter broth serial dilution test. The note with it: Moraxella catarrhalis, ATCC0324.

In the case of `CC[C@H]1OC(=O)[C@H](C)[C@@H](OC2C[C@@](C)(OC)[C@@H](OC(=O)NCCOCCOCCNc3cc4c(=O)c(C(=O)O)cn(C5CC5)c4cc3Cl)[C@H](C)O2)[C@H](C)[C@@H](OC2O[C@H](C)C[C@H](N(C)C)[C@H]2O)[C@](C)(OC)C[C@@H](C)C(=O)[C@H](C)[C@@H](O)[C@]1(C)O` (some centres unmarked) [Example 1, 4″-O-2-{2-[2-(3-Carboxy-7-chloro-1-cyclopropyl-4-oxo-1,4-dihydro-quinolin-6-ylamino)-ethoxy]-ethoxy}-ethylcarbamoyl-6-O-methyl erythromycin A], the MIC was at most 0.125 µg/mL in experiment [1]; at most 0.125 µg/mL with S. pneumoniae 0541; at most 0.125 µg/mL in the experiment with S. pyogenes 0542; at most 0.125 µg/mL in the experiment with E. faecalis ATCC 0004; at most 2 µg/mL in the experiment with H. influenzae ATCC 0529; at most 0.125 µg/mL in experiment [2]. For the same molecule, the MIC in experiment [3] is at most 0.125 µg/mL.
Consider `CC[C@H]1OC(=O)[C@H](C)[C@@H](O[C@H]2C[C@@](C)(OC)[C@@H](OC(=O)NCCOCCOCC#Cc3ccc4c(c3)c(=O)c(C(=O)O)cn4CC)[C@H](C)O2)[C@H](C)[C@@H](O[C@@H]2O[C@H](C)CC(N(C)C)[C@H]2O)[C@](C)(O)C[C@@H](C)CN(C)[C@H](C)[C@@H](O)[C@]1(C)O` (some centres unmarked) [Example 3, 4″-(2-{2-[3-(3-Carboxy-1-ethyl-4-oxo-1,4-dihydro-quinolin-6-yl)-prop-2-ynyloxy]-ethoxy}-ethylcarbamoyl)-azithromycin], for which the MIC in experiment [1] was at most 0.125 µg/mL; against S. pneumoniae 0541, at most 0.125 µg/mL; against S. pyogenes 0542, at most 0.125 µg/mL; against E. faecalis ATCC 0004 it was at most 0.125 µg/mL; with H. influenzae ATCC 0529, at most 0.125 µg/mL; with M. catarrhalis ATCC 0324, at most 0.5 µg/mL.
For the molecule `CC[C@H]1OC(=O)[C@H](C)[C@@H](OC2C[C@@](C)(OC)[C@H](OC(=O)NCCOCCOCCNc3cc4c(=O)c(C(=O)O)cn(C5CC5)c4cc3Cl)[C@@H](C)O2)[C@H](C)[C@@H](O[C@@H]2O[C@H](C)CC(N(C)C)[C@H]2O)[C@](C)(O)C[C@@H](C)CN(C)[C@H](C)[C@@H](O)[C@]1(C)O` (some centres unmarked) [Example 2, 4″-O-2-{2-[2-(3-Carboxy-7-chloro-1-cyclopropyl-4-oxo-1,4-dihydro-quinolin-6-ylamino)-ethoxy]-ethoxy}-ethylcarbamoyl-azithromycin], the MIC in experiment [1] is at most 0.125 µg/mL; in the experiment with S. pneumoniae 0541, at most 0.125 µg/mL; in the experiment on S. pyogenes 0542 it was at most 0.125 µg/mL; against E. faecalis ATCC 0004, at most 0.125 µg/mL; in the experiment with H. influenzae ATCC 0529, at most 2 µg/mL; in experiment [2], at most 0.125 µg/mL. The same molecule came in with an MIC in experiment [3] of at most 0.125 µg/mL.
For `CC[C@H]1OC(=O)[C@H](C)[C@@H](O[C@H]2C[C@@](C)(OC)[C@@H](OC(=O)NCCOCCOCCCc3ccc4c(c3)c(=O)c(C(=O)O)cn4CC)[C@H](C)O2)[C@H](C)[C@@H](O[C@@H]2O[C@H](C)CC(N(C)C)[C@H]2O)[C@](C)(O)C[C@@H](C)CN(C)[C@H](C)[C@@H](O)[C@]1(C)O` (some centres unmarked) [Example 4, 4,1-(2-{2-[3-(3-Carboxy-1-ethyl-4-oxo-1,4-dihydro-quinolin-6-yl)-propoxy]-ethoxy}-ethylcarbamoyl)-azithromycin], the MIC in experiment [1] is at most 0.125 µg/mL; in the experiment on S. pneumoniae 0541 it was at most 0.125 µg/mL; against S. pyogenes 0542, at most 0.125 µg/mL; with E. faecalis ATCC 0004, at most 0.125 µg/mL; against H. influenzae ATCC 0529 it was at most 0.125 µg/mL; in the experiment with M. catarrhalis ATCC 0324 it was at most 0.5 µg/mL.
